This is an account of results in patent US6844366B2, “Sulfonamide hydroxamates” (Syntex (U.S.A.) LLC, priority 1998, dated 2005).

For the compound `COC(=O)c1ccc(CN([C@@H](C(=O)NO)C(C)C)S(=O)(=O)c2ccc(OC)cc2)cc1` [Compound 21, N-Hydroxy-2(R)-[(4-methoxycarbonylbenzyl)-(4-methoxybenzenesulfonyl)amino]-3-methylbutyramide], the melting point lay within 164 to 165 °C.
Under `COc1cc(C)c(S(=O)(=O)N(Cc2ccc3c(c2)OCO3)[C@@H](C(=O)NO)[C@H](C)O)c(C)c1C` [Compound 87, N-hydroxy-2(R)-[(3,4-methylenedioxybenzyl)-(4-methoxy-2,3,6-trimethylbenzenesulfonyl)amino]-3(S)-hydroxybutyramide] stands 95 to 105 °C.
`COc1cc(C)c(S(=O)(=O)N(Cc2ccc3[nH]cc(C(C)=O)c3c2)[C@@H](C(=O)NO)C(C)C)c(C)c1C` [Compound 126, N-hydroxy-2(R)-[(1H-3-acetyl-indol-5-ylmethyl)-(4-methoxy-2,3,6-trimethylbenzenesulfonyl)amino]-3-methylbutyramide] showed a melting point of 163 to 171 °C.
`COc1cc(C)c(S(=O)(=O)N(Cc2ccc3c(c2)OCO3)[C@H](CNS(C)(=O)=O)C(=O)NO)c(C)c1` [Compound 128, N-hydroxy-2(R)-[(3,4-methylendioxybenzyl)-(2,6-dimethyl-4-methoxybenzenesulfonyl)amino]-3-(methanesulfonyl)amino-propionamide] displayed a melting point of 98 to 102 °C.
For `COc1cc(C)c(S(=O)(=O)N(Cc2ccc3c(c2)OCO3)[C@H](CNS(=O)(=O)c2ccccc2)C(=O)NO)c(C)c1` [Compound 129, N-hydroxy-2(R)-[(3,4-methylendioxybenzyl)-(2,6-dimethyl-4-methoxybenzenesulfonyl)amino]-3-benzenesulfonylamino-propionamide], the melting point fell in the range of 103 to 107 °C.
`COC(=O)c1ccc(C(=O)NC[C@H](C(=O)NO)N(Cc2ccc3c(c2)OCO3)S(=O)(=O)c2c(C)cc(OC)cc2C)cc1` [Compound 133, N-hydroxy-2(R)-[(3,4-methylendioxybenzyl)-(2,6-dimethyl-4-methoxybenzenesulfonyl)amino]-3-(4-methoxycarbonyl-benzoyl)amino-propionamide]: the melting point is 119 to 124 °C.
As to `COc1cc(C)c(S(=O)(=O)N(Cc2ccc3[nH]ccc3c2)[C@@H](C(=O)NO)C(C)C)cc1C` [Compound 145, N-hydroxy-2(R)-2-[(1H-indol-5-ylmethyl)-(4-methoxy-2,5-dimethylbenzenesulfonyl)-amino]-3-methylbutyramide], the melting point was in the range of 117 to 121 °C.

As a reminder, the melting point is the temperature of the solid-liquid transition.
